In patent publication US7479484B2, “Peptides and peptidomimetics having immune-modulating, anti-inflammatory, and anti-viral activity” (priority 2003, dated 2009):
Converted amounts (≈) assume the structure as drawn. “And” between values parts separate entries of the source, which are not always exact repeats. Equal values may be shown once. Where a name gives a salt, the structure may show the parent alone. Read-outs that look alike come from different tables or passages of the source. Marks after values point to notes of the source that are not given here. Where a SMILES comes first, the peptide text is derived from it. [ ]: non-standard residue; d: D form. dPhe(F5) = N[C@H](Cc1c(F)c(F)c(F)c(F)c1F)C(=O)O; dBpa = N[C@H](Cc1ccc(C(=O)c2ccccc2)cc1)C(=O)O; dCha = N[C@H](CC1CCCCC1)C(=O)O

Columns and labels:
[1] = tested on: passive cutaneous anaphylaxis (PCA); assay: Passive cutaneous anaphylaxis (PCA) in rats; assay type: in vivo, Wistar rats; settings: rat, IP; for PCA Response 1st Spot / PCA Response 2nd Spot: weal score per animal (N 1-3); for % Inhibition: relative to vehicle control group; for Total PCA Response: sum of scores of 3 animals
Procedure: CBP501 (SEQ ID NO: 80) was evaluated for anti-allergic activity in a model of passive cutaneous anaphylaxis (PCA) in Wistar rats. CBP501, at doses of 20, 10, and 5 mg/kg, was administered intraperitoneally (IP) 30 minutes before challenge with a mixture of ovalbumin and Evans Blue dye.
CBP501 was dissolved in 0.9% NaCl. CBP501, at 20, 10 and 5 mg/kg, was administered intraperitoneally (IP) 30 min before challenge with a mixture of ovalbumin and Evans Blue dye.
Animals: Male or female Wistar rats were provided by the animal breeding center of MDS Pharma Services-Taiwan Ltd. Space allocation for 6 animals was 45×23×21 cm. All animals were maintained in a hygienic environment in a controlled temperature (21.5-22.5° C.) and humidity (50%-70%) environment, with 12 hour light-dark cycles for at least one week, housed in the MDS Pharma Services-Taiwan Laboratory, prior to being used. All aspects of this work including housing, experimentation and disposal of animals were performed in general accordance with the International Guiding Principles for Biomedical Research Involving Animals (CIOMS Publication No. ISBN 92 90360194, 1985).
Chemicals: Cyproheptadine-HCl (RBI-USA), ethanol absolute (Merck, Germany), distilled water (in-house), Evans Blue (Fluka, Switzerland), and ovalbumin (Sigma-Aldrich, USA) were used.
Method of administration: Five groups of three (3) Wistar-derived male rats weighing 80+/−10 g were passively sensitized 16 hours earlier by intradermal injection of reaginic (IgE) antiovalbumin serum (0.05 ml) on two spots of the dorsal surface. […] Within 30 minutes after administration of CBP501, the animals were challenged intravenously (IV) with a mixture of ovalbumin (1 mg) and Evans Blue dye (5 mg). Animals were sacrificed 30 minutes after challenge.
Results: Two measured weal diameters were averaged for each animal and scored 0 if <0.05 cm, 1 if 0.05-0.2 cm, 2 if 0.2-0.4 cm, 3 if 0.4-0.6 cm, 4 if 0.6-0.8 cm and 5 if >0.8 cm. Maximum possible score for each animal totals 2×5=10. Inhibition of the resulting PCA blue colored weal by 50 percent or more relative to the vehicle control group indicates possible antiallergic activity. Results are shown in Table 1, below, where significant changes are indicated by an asterisk(*).

HIV-1 strain WeJo = assay: Inhibition of HIV-1 replication in PBMC (extracellular p24); assay type: cell-based; settings: HIV-1 strain WeJo in PBMC
Procedure: (§1) CBP501 was tested for antiviral activity against HIV-1 in peripheral blood mononuclear cells (PBMC) using the clinical pediatric HIV strain WeJo. PBMCs were derived from normal HIV-1-negative donors, and cultured under conditions which promote cell survival and HIV replication. Antiviral activity was measured by detecting the amount of extracellular HIV-1p24 protein in a sample, where a decrease in p24 levels indicated antiviral activity. Cytotoxity was measured by a tetrazolium dye reduction method. Antiviral activity was analyzed for a series of dilutions of a stock solution of 100 μg/ml CBP501. The experiments were performed using serial dilutions of the compound, generating a series of concentrations from 0.3125 to 80 μg/ml CBP501.

[2] = Cytotoxicity in PBMC (tetrazolium dye reduction); assay type: cell-based; settings: human, peripheral blood mononuclear cells (PBMC), highest concentration tested 80 μg/ml, called an estimate, read-out: TC50 (concentration decreasing cell viability by 50%)
Procedure: as §1

[3] = tested on: peripheral blood mononuclear cells (PBMC); assay: Cytotoxicity in PBMC (tetrazolium dye reduction); assay type: cell-based
Procedure: as §1

HIV-1 strain Ba-L = assay: Inhibition of HIV-1 replication in human monocyte/macrophages (extracellular p24); assay type: cell-based; settings: HIV-1 strain Ba-L in monocyte/macrophages
Procedure: as §1, with “evaluated” for “tested”, “activity” for “activity against HIV-1”, “monocyte/macrophages” for “peripheral blood mononuclear cells (PBMC)”, “the” for “the clinical pediatric”, “Ba-L. Monocyte/macrophages” for “WeJo. PBMCs”

[4] = Cytotoxicity in monocyte/macrophages (tetrazolium dye reduction); assay type: cell-based, human; settings: human, highest concentration tested 80 μg/ml, called an estimate, read-out: TC50 (concentration decreasing cell viability by 50%)
Procedure: as §1, with “evaluated” for “tested”, “activity” for “activity against HIV-1”, “monocyte/macrophages” for “peripheral blood mononuclear cells (PBMC)”, “the” for “the clinical pediatric”, “Ba-L. Monocyte/macrophages” for “WeJo. PBMCs”

monocyte/macrophages = assay: as above; assay type: cell-based, human
Procedure: as §1, with “evaluated” for “tested”, “activity” for “activity against HIV-1”, “monocyte/macrophages” for “peripheral blood mononuclear cells (PBMC)”, “the” for “the clinical pediatric”, “Ba-L. Monocyte/macrophages” for “WeJo. PBMCs”

[5] = tested on: adjuvant-induced arthritis; settings: rat
[6] = tested on: kinases involved in the cell cycle G2 checkpoint, including mitogen activated kinase p38; settings: as disclosed in U.S. application Ser. No. 10/347,145; cited from earlier work
14-3-3 protein = settings: as disclosed in U.S. application Ser. No. 10/347,145; cited from earlier work
[7] = 5 mg/kg, 30 min before challenge
[8] = 10 mg/kg, 30 min before challenge
[9] = 20 mg/kg, 30 min before challenge
[10] = highest concentration tested 80 μg/ml, called an estimate

## N=C(N)NCCC[C@@H](NC(=O)[C@@H](CCCNC(=N)N)NC(=O)[C@@H](CCC(N)=O)NC(=O)[C@@H](CCCNC(=N)N)NC(=O)[C@@H](CCCNC(=N)N)NC(=O)[C@@H](CCCNC(=N)N)NC(=O)[C@@H](CC1CCCCC1)NC(=O)[C@@H](Cc1c(F)c(F)c(F)c(F)c1F)NC(=O)[C@@H](CO)NC(=O)[C@@H](Cc1c[nH]c2ccccc12)NC(=O)[C@@H](CO)NC(=O)[C@H](N)Cc1ccc(C(=O)c2ccccc2)cc1)C(=O)O [CBP501, (d-Bpa)(d-Ser)(d-Trp)(d-Ser)(d-Phe-2,3,4,5,6-F)(d-Cha)(d-Arg)(d-Arg)(d-Arg)(d-Gln)(d-Arg)(d-Arg)] (H-[dBpa][dS][dW][dS][dPhe(F5)][dCha][dR][dR][dR][dQ][dR][dR]-OH)
[1]; [7]
  PCA Response 1st Spot: 0 (0 if <0.05 cm) and 1 (1 if 0.05-0.2 cm) (2×)
  PCA Response 2nd Spot: 0 (0 if <0.05 cm) and 1 (1 if 0.05-0.2 cm) (2×)
[1]; 5 mg/kg, 5 mg/kg
  % Inhibition: 87%
[1]; 5 mg/kg
  Total PCA Response: 4
[1]; [8]
  PCA Response 1st Spot: 0 (0 if <0.05 cm) (2×) and 1 (1 if 0.05-0.2 cm)
  PCA Response 2nd Spot: 0 (0 if <0.05 cm) (2×) and 1 (1 if 0.05-0.2 cm)
[1]; 10 mg/kg, 10 mg/kg
  % Inhibition: 93%
[1]; 10 mg/kg
  Total PCA Response: 2
[1]; [9]
  PCA Response 1st Spot: 0 (0 if <0.05 cm) (2×) and 1 (1 if 0.05-0.2 cm)
  PCA Response 2nd Spot: 0 (0 if <0.05 cm) (2×) and 1 (1 if 0.05-0.2 cm)
[1]; 20 mg/kg, 20 mg/kg
  % Inhibition: 93%
[1]; 20 mg/kg
  Total PCA Response: 2
HIV-1 strain WeJo
  TI (therapeutic index=TC50/IC50): > 113
HIV-1 strain WeJo; p24
  IC50 (concentration that inhibited virus replication by 50%): 0.71 µg/mL (≈ 0.368 µM)
[2]
  CC50: > 80 µg/mL
[3]; 80 μg/ml
  cell viability at the highest concentration tested (in words): hardly affected
[3]; [10]
  TC50 (concentration decreasing cell viability by 50%): > 80 µg/mL
HIV-1 strain Ba-L
  TI (therapeutic index=TC50/IC50): > 12.3
HIV-1 strain Ba-L; p24
  IC50 (concentration that inhibited virus replication by 50%): 6.5 µg/mL (≈ 3.37 µM)
[4]
  CC50: > 80 µg/mL
monocyte/macrophages; 80 μg/ml
  decrease of cell viability at the highest concentration tested: about 25%
monocyte/macrophages; [10]
  TC50 (concentration decreasing cell viability by 50%): > 80 µg/mL
[5]; IP, 2.5 mg/kg ×5 doses
  activity in acute phase (in words): moderate but non-significant activity
  activity in late phase (in words): no activity
[5]; IP, 5 mg/kg once daily for 5 consecutive days
  anti-inflammatory activity in both acute and late phase (in words): significant anti-inflammatory activity
[5]; IP, 10 mg/kg single dose
  anti-inflammatory activity in both acute and late phase (in words): significant anti-inflammatory activity
[5]; in vivo, ip, 2.5 mg/kg
  % Inhibition relative to Vehicle treated control, Days (1-5): 27%
  % Inhibition relative to Vehicle treated control, Days (14-18): −11%
[5]; in vivo, ip, 5 mg/kg
  % Inhibition relative to Vehicle treated control, Days (1-5): 51* %
  % Inhibition relative to Vehicle treated control, Days (14-18): 34* %
[5]; in vivo, ip, 10 mg/kg
  % Inhibition relative to Vehicle treated control, Days (1-5): 61* %
  % Inhibition relative to Vehicle treated control, Days (14-18): 31* %
[6]
  inhibition of phosphorylation activities of kinases involved in the cell cycle G2 checkpoint (in words): inhibits the phosphorylation activities
14-3-3 protein
  binding to 14-3-3 protein (in words): binds

## CN1CCC(=C2c3ccccc3C=Cc3ccccc32)CC1 [Cyproheptadine, Cyproheptadine-HCl, reference compound]
[1]; 1 mg/kg, 1 mg/kg
  % Inhibition: 87* %
[1]; 1 mg/kg, listed as cyproheptadine-HCl, 1 mg/kg
  % Inhibition: 87%
[1]; 1 mg/kg
  Total PCA Response: 4
  PCA Response 1st Spot: 0 (0 if <0.05 cm) and 1 (1 if 0.05-0.2 cm) (2×)
  PCA Response 2nd Spot: 0 (0 if <0.05 cm) and 1 (1 if 0.05-0.2 cm) (2×)

## C[C@]12CCC(=O)C=C1CC[C@@H]1[C@@H]2[C@@H](O)C[C@@]2(C)[C@H]1CC[C@]2(O)C(=O)CO [Hydrocortisone, hydrocortisone, reference compound]
[5]; 30 mg/kg daily for 5 days
  activity in the acute phase (in words): significant activity
  activity in the late phase (in words): near-significant activity
[5]; PO, 30 mg/kg per dose × 5 doses, left hind paw volume, late phase
  % Inhibition relative to Vehicle treated control, Days (14-18): 29%
[5]; PO, 30 mg/kg per dose × 5 doses, right hind paw volume, acute phase
  % Inhibition relative to Vehicle treated control, Days (1-5): 42* %
